Laboratory results from ChEMBL document CHEMBL1949614, “Advent of Imidazo[1,2-a]pyridine-3-carboxamides with Potent Multi- and Extended Drug Resistant Antituberculosis Activity” (ACS Med Chem Lett, 2011).
Converted amounts (≈) assume the structure as drawn. The source made the active and inactive calls. No cut-off for these calls is given here.

Key:
[1] = test system: Mycobacterium tuberculosis; assay: microbe, parasite or virus in culture; details: H37Rv ATCC 27294, 168 h
Description: Antituberculosis activity against Mycobacterium tuberculosis H37Rv ATCC 27294 in GAST medium after 1 week by microplate alamar blue assay

[2] = test system: Mycobacterium tuberculosis; assay: microbe, parasite or virus in culture; details: H37Rv ATCC 27294, 168 h; remark: listed apart in the source
Description: Antituberculosis activity against Mycobacterium tuberculosis H37Rv ATCC 27294 in 7H12 medium after 1 week by microplate alamar blue assay

Vero = assay: Cytotoxicity against african green monkey Vero cells after 72 hrs; format: cell-based; details: Chlorocebus sabaeus
[3] = test system: Mycobacterium tuberculosis; assay: microbe, parasite or virus in culture; details: H37Rv ATCC 27294, 168 h; remark: listed apart in the source
Description: Antituberculosis activity against Mycobacterium tuberculosis H37Rv ATCC 27294 in GAS medium after 1 week by microplate alamar blue assay

[4] = test system: Mycobacterium tuberculosis; assay: Antitubercular activity against non-replicating Mycobacterium tuberculosis H37Rv expressing vibrio harveyii luciferase gene incubated 10 days under anaerobic condition measured after 28 hrs of recovery in aerobic condition by luciferase based low oxygen recovery assay
Staphylococcus aureus = assay: Antibacterial activity against Staphylococcus aureus; format: functional
Escherichia coli = assay: Antimicrobial activity against Escherichia coli; format: functional
Candida albicans = assay: Antifungal activity against Candida albicans; format: functional
Mycobacterium avium = assay: Antimicrobial activity against Mycobacterium avium by microbroth dilution assay; format: functional
Mycobacterium kansasii = assay: Antimicrobial activity against Mycobacterium kansasii by microbroth dilution assay; format: functional
[5] = test system: Mycolicibacterium smegmatis; assay: Antimicrobial activity against Mycobacterium smegmatis by microbroth dilution assay; format: functional
[6] = test system: Mycobacterium tuberculosis; assay: microbe, parasite or virus in culture; details: H37Rv
Description: Antimicrobial activity against Mycobacterium tuberculosis H37Rv by microbroth dilution assay

[7] = test system: Mycobacteroides abscessus; assay: Antimicrobial activity against Mycobacterium abscessus by microbroth dilution assay; format: functional
Mycobacterium marinum = assay: Antimicrobial activity against Mycobacterium marinum by microbroth dilution assay; format: functional
Mycobacteroides chelonae = assay: Antimicrobial activity against Mycobacterium chelonae by microbroth dilution assay; format: functional
Rattus norvegicus = assay: Oral bioavailability in Sprague-Dawley rat at 10 mg/kg; format: ADME, organism-based; details: in vivo
[8] = Half life in Sprague-Dawley rat at 1 mg/kg, iv; format: ADME, organism-based; parameters: dose 1 mg/kg, route intravenous; details: in vivo
[9] = Clearance in Sprague-Dawley rat at 1 mg/kg, iv; format: ADME, organism-based; parameters: dose 1 mg/kg, route intravenous; details: in vivo
in vivo = details: Sprague-Dawley, rat, po, 10 mg/kg
[10] = Aqueous solubility of the compound in PBS buffer at pH 7.4; format: physicochemical
[11] = Drug metabolism in human liver microsomes at 1 mM after 30 mins by LC/MS analysis; format: ADME, Microsome; details: read-out: Drug metabolism
[12] = Cmax in Sprague-Dawley rat at 10 mg/kg, po; format: ADME, organism-based; parameters: dose 10 mg/kg, route oral; details: in vivo
[13] = Drug metabolism in rat liver microsomes at 1 mM after 30 mins by LC/MS analysis; format: ADME, Microsome; details: read-out: Drug metabolism
[14] = test system: Mycobacterium tuberculosis; assay: Antitubercular activity against Mycobacterium tuberculosis assessed as up-regulation of cytochrome bd oxidase at 0.1 to 10 ug/mL after 6 hrs; format: functional, organism-based
[15] = Half life in rat liver microsomes at 1 mM by LC/MS analysis; format: ADME, Microsome
[16] = test system: Mycobacterium tuberculosis; assay: Antitubercular activity against Mycobacterium tuberculosis assessed as up-regulation of phosphoenolpyruvate carboxykinase at 0.1 to 10 ug/mL after 6 hrs; format: functional, organism-based

SMILES | MIC90 [1] | MIC90 [2] | IC50 (Vero) | MIC90 [3] | MIC90 [4] | MIC (Staphylococcus aureus) | MIC (Escherichia coli) | MIC (Candida albicans) | half-life [8] | clearance [9] | Tmax (in vivo) | solubility [10] | metabolised at 0.5 h [11] | Cmax [12] | metabolised at 0.5 h [13] | also measured
O=[N+]([O-])c1cn2c(n1)OC[C@@H](OCc1ccc(OC(F)(F)F)cc1)C2 [PRETOMANID] | 0.21 µM (≈ 0.0754 µg/mL) | 0.47 µM (≈ 0.169 µg/mL) | > 128 µM | 0.31 µM (≈ 0.111 µg/mL) | 4.9 µM (≈ 1.76 µg/mL) |  |  |  |  |  |  |  |  |  |  | 
Cc1ccn2c(C(=O)NCc3ccc(Cl)c(Cl)c3)c(C)nc2c1 | 14.4 µM (≈ 5.01 µg/mL) |  |  | 9.3 µM (≈ 3.24 µg/mL) |  |  |  |  |  |  |  |  |  |  |  | 
Cc1ccn2c(C(=O)NCc3cccc(F)c3)c(C)nc2c1 | 0.38 µM (≈ 0.113 µg/mL) | 1.98 µM (≈ 0.589 µg/mL) | > 128 µM | 0.29 µM (≈ 0.0862 µg/mL) | 40.1 µM (≈ 11.9 µg/mL) | > 128 µM | > 128 µM | > 128 µM |  |  |  |  |  |  |  | 
COc1cccc(CNC(=O)c2c(C)nc3ncc(C)cn23)c1 | 0.1 µM (≈ 0.031 µg/mL) | 0.48 µM (≈ 0.149 µg/mL) | 88.7 µM |  | > 10 µM | > 128 µM | > 128 µM | > 128 µM |  |  |  |  |  |  |  | MIC90 (Mycobacterium avium): 12 µM (≈ 3.72 µg/mL); MIC90 (Mycobacterium kansasii): 12 µM (≈ 3.72 µg/mL); MIC90 [5]: > 50 µM; MIC90 [6]: 5.94 µM (≈ 1.84 µg/mL); MIC90 [7]: > 50 µM; MIC90 (Mycobacterium marinum): > 50 µM; MIC90 (Mycobacteroides chelonae): > 50 µM
COc1ccc(CNC(=O)c2c(C)nc3cc(C)ccn23)cc1 | 0.5 µM (≈ 0.155 µg/mL) | 1.35 µM (≈ 0.418 µg/mL) | > 128 µM | 0.51 µM (≈ 0.158 µg/mL) | 10.5 µM (≈ 3.25 µg/mL) | > 128 µM | > 128 µM | > 128 µM | 16.8 min | 1.68 L/h/kg | 15 min | 148 µM (≈ 45.8 µg/mL) | 30% | 5.74 µg/mL | 69% | F (Rattus norvegicus): 50%
Cc1ccn2c(C(=O)NCc3ccccc3)c(C)nc2c1 | 0.69 µM (≈ 0.193 µg/mL) | 1.9 µM (≈ 0.531 µg/mL) | > 128 µM | 0.37 µM (≈ 0.103 µg/mL) | 53.6 µM (≈ 15 µg/mL) | > 128 µM | > 128 µM | > 128 µM | 21 min | 5.46 L/h/kg | 15 min | 181 µM (≈ 50.6 µg/mL) | 59% | 3.01 µg/mL | 71% | Activity [14]: Active; F (Rattus norvegicus): 76%; MIC90 (Mycobacterium avium): 1.32 µM (≈ 0.369 µg/mL); MIC90 (Mycobacterium kansasii): 1.32 µM (≈ 0.369 µg/mL); half-life [15]: 19 min; MIC90 [5]: > 50 µM; MIC90 [6]: 1.07 µM (≈ 0.299 µg/mL); MIC90 [7]: > 50 µM; Activity [16]: Active; MIC90 (Mycobacterium marinum): > 50 µM; MIC90 (Mycobacteroides chelonae): > 50 µM
Cc1ccc(CNC(=O)c2c(C)nc3cc(C)ccn23)cc1 | 0.8 µM (≈ 0.235 µg/mL) |  | 54.7 µM | 0.51 µM (≈ 0.15 µg/mL) |  |  |  |  |  |  |  |  |  |  |  | 
CO[C@H]1/C=C/O[C@@]2(C)Oc3c(C)c(O)c4c(O)c(c(/C=N/N5CCN(C)CC5)c(O)c4c3C2=O)NC(=O)/C(C)=C\C=C\[C@H](C)[C@H](O)[C@@H](C)[C@@H](O)[C@@H](C)[C@H](OC(C)=O)[C@@H]1C [RIFAMPIN] | 0.2 µM (≈ 0.165 µg/mL) | 0.07 µM (≈ 0.0576 µg/mL) | 113 µM | 0.8 µM (≈ 0.658 µg/mL) |  |  |  |  |  |  |  |  |  |  |  | MIC90 (Mycobacterium avium): < 0.78 µM; MIC90 (Mycobacterium kansasii): < 0.78 µM; MIC90 [5]: 162 µM (≈ 134 µg/mL); MIC90 [6]: 0.05 µM (≈ 0.0411 µg/mL); MIC90 [7]: 162 µM (≈ 134 µg/mL); MIC90 (Mycobacterium marinum): < 0.78 µM; MIC90 (Mycobacteroides chelonae): 150 µM (≈ 123 µg/mL)
Cc1ccn2c(C(=O)Nc3ccccc3)c(C)nc2c1 | > 128 µM |  |  |  |  |  |  |  |  |  |  |  |  |  |  | 
Cc1ccn2c(C(=O)NCc3ccc(Cl)cc3)c(C)nc2c1 | 0.51 µM (≈ 0.16 µg/mL) | 1.94 µM (≈ 0.609 µg/mL) | > 128 µM | 0.5 µM (≈ 0.157 µg/mL) | 28 µM (≈ 8.79 µg/mL) | > 128 µM | > 128 µM | > 128 µM | 24 min | 3.06 L/h/kg | 18.6 min | 25 µM (≈ 7.84 µg/mL) | 82% | 2 µg/mL | 79% | F (Rattus norvegicus): 49%
COc1cccc(CNC(=O)c2c(C)nc3cc(C)ccn23)c1 | 1 µM (≈ 0.309 µg/mL) | 5.9 µM (≈ 1.83 µg/mL) | > 128 µM | 1.2 µM (≈ 0.371 µg/mL) | 31.4 µM (≈ 9.71 µg/mL) | > 128 µM | > 128 µM | > 128 µM | 19.8 min | 2.58 L/h/kg | 15 min | 149 µM (≈ 46.1 µg/mL) | 47% | 3.14 µg/mL | 80% | 
COc1ccccc1CNC(=O)c1c(C)nc2cc(C)ccn12 | 1.9 µM (≈ 0.588 µg/mL) |  | > 128 µM | 2.8 µM (≈ 0.866 µg/mL) |  |  |  |  |  |  |  |  |  |  |  | 
